Laboratory results taken from US20120157471A1, “BENZIMIDAZOLE DERIVATIVES” (PFIZER INC., priority 2009, published 2012).
pIC50: −log10 of the molar value. Structures can show the parent of a compound that is named as a salt.

Columns and labels:
[1] = biological target: T1, human Smo (amino acids 181-787) (Homo sapiens, UniProt Q99835); experiment: Smo radioligand competition binding assay (displacement of 3H-PF-03451358 from HEK293 membranes); conditions: for inhibition at 0.05 µM: 0.05 μM test compound, displacement of 3H-PF-03451358, read-out: SMO % inh. @ 0.05 μM; for pIC50: radioligand competition binding
T1 construct: expressed in transfected cells; membrane preparation
Protocol: Membranes were prepared from a stable cell line created in HEK293FlpIn-TetR cells (Invitrogen) using FIp recombinase-mediated insertion of the pSecTag-FRT/V5-His vector containing a cDNA encoding amino acids 181-787 of human Smo fused to the murine lgk leader sequence to produce a cell surface expressed Smo 181-781 protein. Hygromycin-resistant clones were obtained and stained for LacZ expression (no expression indicates a correct knock-in of my fusion cDNA). LacZ-negative cells were analyzed for binding tritiated Smo antagonist PF-03451358. For membrane preparation, the HEK293 cells expressing Smo 181-781 were grown to 90% confluence in nine to fifteen 245 mm×245 mm×22 mm dishes, washed with Dulbecco's PBS (15 ml per dish) and harvested via scraping in 10 ml of DPBS. The cells were collected and centrifuged at 1500 rpm (400×g) for 10 min at 4° C. The cell pellets were re-suspended in 40 ml of cold DPBS and washed by centrifugation at 2300 rpm (950×g max) for 10 minutes at 4° C. The supernatant was aspirated and the cell pellet was snap frozen in a methanol/dry ice bath and stored at −70° C. For membrane preparation, 15 ml of Membrane Preparation Buffer (50 mM Tris-HCl pH 7.5, 250 mM sucrose with Roche complete protease cocktail tablets) is added to the tube containing the cell pellet, then cells are rapidly thawed, and homogenized using an Ultra-Turrax T8 (IKA Labortechnik) set on “6” for 15 seconds for 5-6 times in icy water bath. This homogenate was diluted up to 50 ml using Membrane Preparation Buffer and centrifuged at 35,000 rpm in a Beckman Ti45 rotor (140,000×g) for 35 minutes at 4° C. followed by aspiration of the supernatant and re-suspension of the pellet in 5 ml of Assay Buffer (50 mM Tris-HCl pH 7.5, 100 mM NaCl, 25 mM MgCl2, 1 mM EDTA, and 0.1% protease free bovine serum albumin). The re-suspended pellet is then homogenized in a glass tissue grinder. The re-suspended membranes are aliquoted (0.5 ml aliquots), snap frozen and stored at −70° C. Total protein in the membrane preparation is determined using the Pierce BCA protein assay (Pierce Chemical).
For the binding competition assay, 100 μl of Assay Buffer is added to all the wells of a 96 well GF/B filter plate (Millipore MultiScreen-HTS-FB cat# MSFBN6B50) for 10 minutes to pre-wet the filter prior to evacuation of the buffer (8 inches Hg for 8 seconds). To the pre-wet wells is added: 20 μl of Assay Buffer, 10 μl diluted test agent, 20 μl of ^3H-PF-3451358 (15 nM stock solution), and 50 μl of membrane preparation (40 μg total protein per well). The plates are sealed and mixed at room temperature for 5 min, incubated at room temperature for 2 hours, then washed 5 times with 100 μl/each of wash buffer and vacuum dried for 8 seconds at 8 inch Hg. The plate is then dried for one hour in a 60° C. oven prior to the addition of 45 μl of Microscint 20 (Packard, #6013621) to each well and incubation at RT for 30 minutes to 1 hour. The plate is counted in a TopCount scintillation counter (Perkin Elmer).
Data analysis uses Excel for % Inhibition and Graphpad Prism for IC50 calculation. Total binding (TB, in the absence of inhibitors)=average of ^3H PF-03451358 3 nM+SMO membrane (40 μg/wells (approx 5000-7000 CPM). Non-specific binding (NSB)=average of ^3H PF-03451358 (3 nM)+cold PF-03451358 (30 μM)+SMO membrane (approx 600-1200 CPM). Specific binding (SB)=(total binding−non-specific binding). % Inhibition=[1−(compound Specific binding/control Specific binding)]×100%. IC50 is calculated by fitting the data to the four parameter sigmoidal dose-response curve (variable slope) Y=Bottom+(Top-Bottom)/(1+10̂((LogEC50−X)*HillSlope)). X is the logarithm of the inhibitor concentration. Y is the response; Y starts at Bottom and goes to Top with a sigmoid shape.

Gli-Luc/MEF cells (Smo) = experiment: Gli-Luc/MEF assay (Shh-stimulated luciferase reporter under the Gli response element); type: cell-based, mouse; conditions: Mus musculus, MEF, 48 h
Protocol: The Gli-Luc/MEF cells obtained from Gli-Luc transgenic mice (Pfizer CoE, Genetically Modified Mice) contain a luciferase reporter gene under the control of the Gli response element. Luciferase activity stimulated with Sonic hedgehog ligand was inhibited by Smo inhibitors, and IC50 was subsequently calculated.
Plates were incubated at 37° C. and 5% CO2 overnight. On day two, cells were dosed with test compounds at a final concentration ranging from […] to 50 μM at a 3-time series dilution. Immediately after dosing cells with compounds, recombinant mouse sonic hedgehog (Shh, R&D Systems 464-SH) was added to a final concentration of 2 μg/mL. The cells were incubated with compounds and Shh for 48 hours at 37° C. and 5% CO2. Luciferase assays were conducted on Day 4 using the Bright-Glo Luciferase assay system (Promega E2620) according to Promega's protocol. Briefly, Bright-Glo luciferase reagent was made up and 25 uL were added to each well of the 384-well plate containing media. Plates were kept at room temperature for 5 minutes, and then read on an Envision Luminescence plate reader (Perkin-Elmer). IC50 of the inhibition was calculated by using GraphPad Prism.

T1 sequence (Q99835 181-787): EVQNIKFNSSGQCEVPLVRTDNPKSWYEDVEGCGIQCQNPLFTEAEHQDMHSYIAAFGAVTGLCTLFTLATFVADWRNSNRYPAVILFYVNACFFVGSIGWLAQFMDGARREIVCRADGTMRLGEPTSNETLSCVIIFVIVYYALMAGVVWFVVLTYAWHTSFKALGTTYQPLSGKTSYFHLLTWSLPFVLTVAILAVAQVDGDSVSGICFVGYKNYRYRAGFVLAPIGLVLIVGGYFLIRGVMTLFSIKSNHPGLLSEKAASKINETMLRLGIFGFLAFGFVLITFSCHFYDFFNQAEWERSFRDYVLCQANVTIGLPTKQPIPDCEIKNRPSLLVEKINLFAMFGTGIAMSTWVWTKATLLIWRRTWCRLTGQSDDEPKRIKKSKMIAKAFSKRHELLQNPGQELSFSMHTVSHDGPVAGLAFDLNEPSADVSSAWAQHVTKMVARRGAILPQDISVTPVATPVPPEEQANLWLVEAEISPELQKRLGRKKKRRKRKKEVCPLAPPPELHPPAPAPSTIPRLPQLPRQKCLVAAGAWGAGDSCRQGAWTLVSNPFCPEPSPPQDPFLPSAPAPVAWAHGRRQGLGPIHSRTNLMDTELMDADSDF

Row | SMILES | inhibition at 0.05 µM [1] [%] | pIC50 [1] | pIC50 (Gli-Luc/MEF cells (Smo))
1 | CC1CC2(CCN1c1cc(-c3nc4ccccc4n3C)c(Cl)cn1)CNC(=O)C2 (stereo in doubt) [Example A-48, (5R,7S)-8-[5-chloro-4-(1-methyl-1H-benzimidazol-2-yl)pyridin-2-yl]-7-methyl-2,8-diazaspiro[4.5]decan-3-one] | 100 | 8.15 | 8.15
2 | Cn1c(-c2cc(N3C[C@H]4CNS(=O)(=O)[C@H]4C3)ncc2Cl)nc2ccccc21 (stereo in doubt) [Example A-55, 2-{5-chloro-2-[(3aS,6aR)-1,1-dioxidohexahydro-5H-pyrrolo[3,4-d]isothiazol-5-yl]pyridin-4-yl}-1-methyl-1H-benzimidazole] | 98 | 7.59 | 8.00
3 | Cn1c(-c2cc(N3CCN4C[C@H](O)CC4C3)ncc2Cl)nc2ccccc21 (stereo in doubt) [Example A-60, (7R,8aS)-2-[5-chloro-4-(1-methyl-1H-benzimidazol-2-yl)pyridin-2-yl]octahydropyrrolo[1,2-a]pyrazin-7-ol] | 96 | 7.57 | 7.66
4 | CC(=O)NC1CCN(c2cc(-c3nc4ccccc4n3C)c(Cl)cn2)C1 (stereo in doubt) [Example A-134, N-{(3S)-1-[5-chloro-4-(1-methyl-1H-benzimidazol-2-yl)pyridin-2-yl]pyrrolidin-3-yl}acetamide] | 48 |  | 
5 | Cn1c(-c2cc(N3CCC(C(=O)O)CC3)ncc2Cl)nc2ccccc21 [Example A-7, 1-[5-chloro-4-(1-methyl-1H-benzimidazol-2-yl)pyridin-2-yl]piperidine-4-carboxylic acid] | 39 |  | 
6 | Cn1c(-c2cc(N3CCC(S(C)(=O)=O)CC3)ncc2Cl)nc2cccnc21 [Example A-37, 2-{5-chloro-2-[4-(methylsulfonyl)piperidin-1-yl]pyridin-4-yl}-3-methyl-3H-imidazo[4,5-b]pyridine] | 67 | 6.61 | 
7 | COC1CCN(c2cc(-c3nc4cccnc4n3C)c(Cl)cn2)CC1 [Example A-38, 2-[5-chloro-2-(4-methoxypiperidin-1-yl)pyridin-4-yl]-3-methyl-3H-imidazo[4,5-b]pyridine] | 51 | 6.33 | 
8 | CC(=O)N1CCN(c2cc(-c3nc4cccnc4n3C)c(Cl)cn2)CC1 [Example A-40, 2-[2-(4-acetylpiperazin-1-yl)-5-chloropyridin-4-yl]-3-methyl-3H-imidazo[4,5-b]pyridine] | 66 | 6.80 | 
9 | Cn1c(-c2cc(N3CC(c4ncc[nH]4)C3)ncc2Cl)nc2ccccc21 [Example A-133, 2-{5-chloro-2-[3-(1H-imidazol-2-yl)azetidin-1-yl]pyridin-4-yl}-1-methyl-1H-benzimidazole] | 48 |  | 
10 | Cc1nccn1CC1(O)CCN(c2cc(-c3nc4ccccc4n3C)c(Cl)cn2)C1 (stereo not shown) [Example A-135, 1-[5-chloro-4-(1-methyl-1H-benzimidazol-2-yl)pyridin-2-yl]-3-[(2-methyl-1H-imidazol-1-yl)methyl]pyrrolidin-3-ol] | 46 |  | 
11 | Cn1c(-c2cc(N3CCC(O)(CN4CCCC4=O)C3)ncc2Cl)nc2ccccc21 (stereo not shown) [Example A-136, 1-({1-[5-chloro-4-(1-methyl-1H-benzimidazol-2-yl)pyridin-2-yl]-3-hydroxypyrrolidin-3-yl}methyl)pyrrolidin-2-one] | 46 |  | 
12 | CN1CCN(C2COCCN(c3cc(-c4nc5ccccc5n4C)c(Cl)cn3)C2)CC1 (stereo not shown) [Example A-137, 2-{5-chloro-2-[6-(4-methylpiperazin-1-yl)-1,4-oxazepan-4-yl]pyridin-4-yl}-1-methyl-1H-benzimidazole] | 45 |  | 
13 | Cn1cnnc1C1CCCN(c2cc(-c3nc4ccccc4n3C)c(Cl)cn2)C1 (stereo not shown) [Example A-138, 2-{5-chloro-2-[3-(4-methyl-4H-1,2,4-triazol-3-yl)piperidin-1-yl]pyridin-4-yl}-1-methyl-1H-benzimidazole] | 45 |  | 
14 | Cn1c(-c2cc(N3CC(c4cccnn4)C3)ncc2Cl)nc2ccccc21 [Example A-139, 2-[5-chloro-2-(3-pyridazin-3-ylazetidin-1-yl)pyridin-4-yl]-1-methyl-1H-benzimidazole] | 42 |  | 
15 | Cn1c(-c2cc(N3CCC(O)(c4ncccn4)C3)ncc2Cl)nc2ccccc21 (stereo not shown) [Example A-140, 1-[5-chloro-4-(1-methyl-1H-benzimidazol-2-yl)pyridin-2-yl]-3-pyrimidin-2-ylpyrrolidin-3-ol] | 42 |  | 
16 | Cn1c(-c2cc(NCCN)ncc2Cl)nc2ccccc21 [Example A-142, N-[5-chloro-4-(1-methyl-1H-benzimidazol-2-yl)pyridin-2-yl]ethane-1,2-diamine] | 44 |  | 
17 | Cn1c(-c2cc(NCCS(C)(=O)=O)ncc2Cl)nc2ccccc21 [Example A-167, 5-chloro-4-(1-methyl-1H-benzimidazol-2-yl)-N-[2-(methylsulfonyl)ethyl]pyridin-2-amine] | 64 | 6.54 | 
18 | CN(CCN)c1cc(-c2nc3ccccc3n2C)c(Cl)cn1 [Example A-184, N-[5-chloro-4-(1-methyl-1H-benzimidazol-2-yl)pyridin-2-yl]-N-methylethane-1,2-diamine] | 50 | 6.47 | 
19 | Cn1c(-c2nc(N3CCNCC3)ccc2Cl)nc2ccccc21 [Example B-1, 2-(3-chloro-6-piperazin-1-ylpyridin-2-yl)-1-methyl-1H-benzimidazole formate salt] | 59 |  | 
20 | CC(=O)N1CCN(c2nccc(-c3nc4ccccc4n3C)n2)CC1 [Example C-2, 2-[2-(4-Acetylpiperazin-1-yl)pyrimidin-4-yl]-1-methyl-1H-benzimidazole] | 65 | 6.35 | 
21 | Cn1c(-c2ccnc(N3CCN(S(C)(=O)=O)CC3)n2)nc2ccccc21 [Example C-4, 1-Methyl-2-{2-[4-(methylsulfonyl)piperazin-1-yl]pyrimidin-4-yl}-1H-benzimidazole] | 45 |  | 
22 | COC(=O)N1CCN(c2nccc(-c3nc4ccccc4n3C)n2)CC1 [Example C-6, Methyl 4-[4-(1-methyl-1H-benzimidazol-2-yl)pyrimidin-2-yl]piperazine-1-carboxylate] | 27 |  | 
